Assay results reported in patent publication US7888118B2, “2-{2-[5-(3-chlorophenyl)]furanyl}-4,5-bis(4-methoxyphenyl)imidazole and methods for inducing differentiation of myoblasts or muscle fibers into neuron cells” (Industry-Academic Cooperation Foundation, Yonsei University, priority 2005, dated 2011).

Experiments:
[1] = system: human single muscle fibers; experiment: Differentiation of isolated human muscle fibers into neuron cells; type: cell-based
Method: Single fibers of human skeletal muscle are obtained as described previously (In Vitro Cell Dev Biol Anim. 2002, 38, 66). A sample of skeletal muscle is dissected from the abductor hallucis muscle. The sample is collected and transported in single fiber culture media (Ham's F-10 medium supplemented with 10% FBS, 2% chick embryo extract and 1.5 μg/mL amphotericin B). The muscle sample is incubated in 10 mL single fiber culture media containing 0.1% collagenase in a 50 mL Falcon™ tube for 1 h at 37° C. Bundles of muscle fibers are carefully dissected using a scalpel. The bundles are laid in a Petri dish containing 10 mL single fiber culture media with 0.1% collagenase at 37° C. for 5 h. Isolation of single muscle fibers is carried out by repeatedly triturating the muscle sample with a wide-mouthed Pasteur pipette. Isolated muscle fibers that have not undergone hypercontraction (which renders them unsuitable for plating in culture dishes) are placed in matrigel-coated 6-well plates at a density of three fibers per well. Fibers are plated in one drop of single fiber culture media and allowed to attach for 6 h and then 1 mL of media is added to the culture. After 24 h, the media are changed to single fiber culture media without amphotericin B.
After 5 days, populations of satellite muscle precursor cells migrate from the fiber and begin to proliferate. […]

Murine myoblasts (C2C12) = experiment: Neurite outgrowth / neuron differentiation of myoblasts observed by light microscope; type: cell-based
Method: Murine myoblasts (C2C12) are usually cultured in RPMI 1640 or DMEM supplemented with 10% FBS, 50 units/mL penicillin and 50 μg/mL of streptomycin at 37° C. with 5% CO2 in air atmosphere.
For the small molecule screen, the cultured C2C12 cells are seeded in a 96-well plate at a density of 10^3 cells per well in culture media. After 24 h, the culture media are replaced with differentiation media (RPMI 1640 or DMEM containing 1% FBS, 50 units/mL penicillin and 50 μg/mL of streptomycin). Test compounds are then added at a final concentration of 5-10 μM. After 96 h incubation, morphological changes of cells are observed by a light microscope (Nikon Eclipse TE2000) to detect neurite outgrowth characteristic of neuron differentiation. To ascertain neuron differentiation, the cells are washed with PBS and loaded FM1-43 (a final concentration: 2 μM, Molecular Probes) dissolved in Ringer buffer containing 100 mM KCl. […] Fluorescent intensity of the treated cells (excitation wavelength: 470 nm, emission wavelength: 540 nm) is read on a fluorescent microplate reader (SpectraMax GeminiEM, Molecular Devices).
An imidazole library of about 300 compounds is added at a final concentration of 5-10 μM. […] Fluorescent intensity (excitation wavelength: 470 nm, emission wavelength: 540 nm) is read on a fluorescent microplate reader (SpectraMax GeminiEM, Molecular Devices).

For COc1ccc(-c2nc(-c3ccc(-c4cccc(Cl)c4)o3)[nH]c2-c2ccc(OC)cc2)cc1 [Neurodazine 1, 2-{2-[5-(3-chlorophenyl)]furanyl}-4,5-bis(4-methoxyphenyl)imidazole], the “differentiation of muscle fibers into neuron cells (FIG. 3)” value [1] was “Differentiated neuron cells from muscle fibers” and the “differentiation of myoblasts into neuron cells (FIG. 2)” value (Murine myoblasts (C2C12)) was “Differentiated neuron cells from myoblasts”.
